Assay results published in patent US20260258035A1, “FIVE-MEMBERED AND SIX-MEMBERED NITROGEN-CONTAINING COMPOUND, AND INTERMEDIATE, PREPARATION METHOD AND USE THEREOF” (HANGZHOU SYNRX THERAPEUTICS BIOMEDICAL TECHNOLOGY CO., LTD., priority 2022, published 2026).
Like-named read-outs stand apart in the source and are kept apart here.

Tests used:
[1] = system: HCC1806; assay: Cell viability assay (CellTiter-Glo); format: cell-based, Human
[2] = biological target: PARG (Homo sapiens, UniProt Q86W56); assay: Biochemical assay (PARG, TFMU-ADPr substrate)
Chain of PARG (Q86W56 whole entry): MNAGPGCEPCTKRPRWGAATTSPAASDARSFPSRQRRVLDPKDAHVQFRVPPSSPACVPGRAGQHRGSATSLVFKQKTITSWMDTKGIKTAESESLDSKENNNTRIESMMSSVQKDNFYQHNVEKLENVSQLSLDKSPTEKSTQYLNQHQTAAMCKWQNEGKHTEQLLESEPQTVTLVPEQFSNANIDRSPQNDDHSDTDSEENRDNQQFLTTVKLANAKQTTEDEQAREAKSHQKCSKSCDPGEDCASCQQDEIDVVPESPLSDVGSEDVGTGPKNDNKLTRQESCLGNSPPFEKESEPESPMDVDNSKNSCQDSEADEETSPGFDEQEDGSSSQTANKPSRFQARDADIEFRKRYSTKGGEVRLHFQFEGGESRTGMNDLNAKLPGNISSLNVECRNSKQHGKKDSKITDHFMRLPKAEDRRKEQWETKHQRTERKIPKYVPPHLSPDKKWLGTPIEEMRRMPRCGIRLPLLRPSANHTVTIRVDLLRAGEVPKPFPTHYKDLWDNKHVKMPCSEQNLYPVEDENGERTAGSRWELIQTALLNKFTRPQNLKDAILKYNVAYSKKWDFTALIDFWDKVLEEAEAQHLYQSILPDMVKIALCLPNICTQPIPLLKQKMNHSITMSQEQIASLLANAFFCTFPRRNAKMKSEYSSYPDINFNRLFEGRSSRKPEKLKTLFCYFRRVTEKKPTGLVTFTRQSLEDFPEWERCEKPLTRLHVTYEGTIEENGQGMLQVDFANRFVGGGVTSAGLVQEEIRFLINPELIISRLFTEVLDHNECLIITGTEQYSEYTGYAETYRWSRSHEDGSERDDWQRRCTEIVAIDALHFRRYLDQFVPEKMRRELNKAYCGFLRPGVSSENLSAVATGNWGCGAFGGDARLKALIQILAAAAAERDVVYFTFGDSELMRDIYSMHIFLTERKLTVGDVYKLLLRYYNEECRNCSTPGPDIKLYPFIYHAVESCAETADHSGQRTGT

[3] = 4 nM PARG, 66.2 uM TFMU-ADPr, 3 min at room temperature
[4] = Homo sapiens, HCC1806, 168 h, HCC1806, 7 days, CellTiter-Glo, read-out: IC50 (nM) in cell viability assay

Row | IC50 [2, 3] [nM] | IC50 ([2]; PARG, TFMU-ADPr substrate) [nM] | IC50 [1, 4] [nM] | SMILES | also measured
1 | < 100 | 34.7 | – | N#CC1(NS(=O)(=O)c2cc(N3CCC(F)(CO)CC3)c3cnc(-c4nnc(C(F)F)s4)n3c2)CC1 [Example 90, N-(1-cyanocyclopropyl)-3-(5-(difluoromethyl)-1,3,4-thiadiazol-2-yl)-8-(4-fluoro-4-(hydroxymethyl)piperidin-1-yl)imidazo[1,5-a]pyridine-6-sulfonamide] | –
2 | < 100 | 75.9 | – | C[C@@H]1CN(c2cc(S(=O)(=O)NC3(C#N)CC3)cn3c(-c4nnc(C(F)F)s4)ncc23)[C@@H](C)CN1C(=O)C1(C)CC1 [Example 93, N-(1-cyanocyclopropyl)-3-(5-(difluoromethyl)-1,3,4-thiadiazol-2-yl)-8-((2S,5R)-2,5-dimethyl-4-(1-methylcyclopropane-1-carbonyl)piperazin-1-yl)imidazo[1,5-a]pyridine-6-sulfonamide] | –
3 | < 100 | 100 | – | CC1(C(=O)N2CCN(c3cc(S(=O)(=O)NC4(C#N)CC4)cn4c(-c5nnc(C(F)F)s5)ncc34)CC2(C)C)CC1 [Example 95, N-(1-cyanocyclopropyl)-3-(5-(difluoromethyl)-1,3,4-thiadiazol-2-yl)-8-(3,3-dimethyl-4-(1-methylcyclopropane-1-carbonyl)piperazin-1-yl)imidazo[1,5-a]pyridine-6-sulfonamide] | –
4 | – | – | > 30000 | CC(C)C(=O)N1CCN(c2cc(S(=O)(=O)NC3(C#N)CC3)cc3c(-c4nnc(C(F)F)s4)nc(Cl)n23)CC1 [Example 98, 3-chloro-N-(1-cyanocyclopropyl)-1-(5-(difluoromethyl)-1,3,4-thiadiazol-2-yl)-5-(4-isobutyrylpiperazin-1-yl)imidazo[1,5-a]pyridine-7-sulfonamide] | –
5 | < 100 | 50 | – | CC1(O)CCN(c2cc(S(=O)(=O)NC3(C)CC3)cn3c(-c4nnc(C(F)F)s4)nnc23)CC1 [Example 116, 3-(5-(difluoromethyl)-1,3,4-thiadiazol-2-yl)-8-(4-hydroxy-4-methylpiperidin-1-yl)-N-(1-methylcyclopropyl)-[1,2,4]triazolo[4,3-a]pyridine-6-sulfonamide] | –
6 | < 100 | 72.4 | – | C[C@@H]1CN(c2cc(S(=O)(=O)NC3CC3)cn3c(-c4nnc(C(F)F)s4)nnc23)CCN1C(=O)C1(C)CC1 [Example 118, (R)-N-cyclopropyl-3-(5-(difluoromethyl)-1,3,4-thiadiazol-2-yl)-8-(3-methyl-4-(1-methylcyclopropane-1-carbonyl)piperazin-1-yl)-[1,2,4]triazolo[4,3-a]pyridine-6-sulfonamide] | –
7 | – | 13.2 | – | C[C@H]1CN(c2cc(S(=O)(=O)NC3(C)COC3)cn3c(-c4nnc(C(F)F)s4)nc(Cl)c23)C[C@H](CO)O1 [Example 133, 1-chloro-3-(5-(difluoromethyl)-1,3,4-thiadiazol-2-yl)-8-((2R,6S)-2-(hydroxymethyl)-6-methylmorpholino)-N-(3-methyloxetan-3-yl)imidazo[1,5-a]pyridine-6-sulfonamide] | –
8 | – | 69.2 | – | C[C@H]1CN(c2cc(S(=O)(=O)NC3(C)COC3)cn3c(-c4nnc(C(F)(F)F)s4)nc(Cl)c23)C[C@H](C)O1 [Example 134, 1-chloro-8-((2S,6S)-2,6-dimethylmorpholino)-N-(3-methyloxetan-3-yl)-3-(5-(trifluoromethyl)-1,3,4-thiadiazol-2-yl)imidazo[1,5-a]pyridine-6-sulfonamide] | –
9 | < 100 | 26.2 | – | N#CC1(NS(=O)(=O)c2cc(-c3ccc4c(c3)CCO4)c3cnc(-c4nnc(C(F)F)s4)n3c2)CC1 [Example 140, N-(1-cyanocyclopropyl)-3-(5-(difluoromethyl)-1,3,4-thiadiazol-2-yl)-8-(2,3-dihydrobenzofuran-5-yl)imidazo[1,5-a]pyridine-6-sulfonamide] | –
10 | 100 to 500 | 280 | – | N#CC1(NS(=O)(=O)c2cc(-c3ccc(OC(F)(F)F)cc3)c3cnc(-c4nnc(C(F)F)s4)n3c2)CC1 [Example 141, N-(1-cyanocyclopropyl)-3-(5-(difluoromethyl)-1,3,4-thiadiazol-2-yl)-8-(4-(trifluoromethoxy)phenyl)imidazo[1,5-a]pyridine-6-sulfonamide] | –
11 | < 100 | 12 | – | Cc1c(-c2cc(S(=O)(=O)NC3(C#N)CC3)cn3c(-c4nnc(C(F)F)s4)ncc23)cnn1C(C)C [Example 143, N-(1-cyanocyclopropyl)-3-(5-(difluoromethyl)-1,3,4-thiadiazol-2-yl)-8-(1-isopropyl-5-methyl-1H-pyrazol-4-yl)imidazo[1,5-a]pyridine-6-sulfonamide] | –
12 | 100 to 500 | 316 | – | N#CC1(NS(=O)(=O)c2cc(N3CCC(CO)(C(F)(F)F)CC3)c3cnc(-c4nnc(C(F)F)s4)n3c2)CC1 [Example 145, N-(1-cyanocyclopropyl)-3-(5-(difluoromethyl)-1,3,4-thiadiazol-2-yl)-8-(4-(hydroxymethyl)-4-(trifluoromethyl)piperidin-1-yl)imidazo[1,5-a]pyridine-6-sulfonamide] | –
13 | < 100 | 8.29 | – | CN1CC(Nc2cc(S(=O)(=O)NC3(C#N)CC3)cn3c(-c4nnc(C(F)F)s4)ncc23)C1 [Example 150, N-(1-cyanocyclopropyl)-3-(5-(difluoromethyl)-1,3,4-thiadiazol-2-yl)-8-((1-methylazetidin-3-yl)amino)imidazo[1,5-a]pyridine-6-sulfonamide] | –
14 | 100 to 500 | 178 | – | N#CC1(NS(=O)(=O)c2cc(NC3CCC(OC(F)(F)F)C3)c3cnc(-c4nnc(C(F)F)s4)n3c2)CC1 (stereo not drawn) [Example 151, N-(1-cyanocyclopropyl)-3-(5-(difluoromethyl)-1,3,4-thiadiazol-2-yl)-8-((3-(trifluoromethoxy)cyclopentyl)amino)imidazo[1,5-a]pyridine-6-sulfonamide] | –
15 | – | – | 27200 | O=S(=O)(NC1CC1)c1cc(N2Cc3c[nH]nc3C2)c2cnc(-c3nnc(C(F)(F)F)s3)n2c1 [Example 247, N-cyclopropyl-8-(2,6-dihydropyrrolo[3,4-c]pyrazol-5(4H)-yl)-3-(5-(trifluoromethyl)-1,3,4-thiadiazol-2-yl)imidazo[1,5-a]pyridine-6-sulfonamide] | –
16 | – | – | 2000 | N#CC1(NS(=O)(=O)c2cc(N3CCCC(N)C3)c3cnc(-c4nnc(C(F)(F)F)s4)n3c2)CC1 (stereo not drawn) [Example 262, 8-(3-aminopiperidin-1-yl)-N-(1-cyanocyclopropyl)-3-(5-(trifluoromethyl)-1,3,4-thiadiazol-2-yl)imidazo[1,5-a]pyridine-6-sulfonamide] | –
17 | – | – | 4500 | N#CC1(NS(=O)(=O)c2cc(N3CCC(N)CC3)c3cnc(-c4nnc(C(F)(F)F)s4)n3c2)CC1 [Example 263, 8-(4-aminopiperidin-1-yl)-N-(1-cyanocyclopropyl)-3-(5-(trifluoromethyl)-1,3,4-thiadiazol-2-yl)imidazo[1,5-a]pyridine-6-sulfonamide] | –
18 | – | – | 1500 | CC(C)C(=O)NC1CCCN(c2cc(S(=O)(=O)NC3(C#N)CC3)cn3c(-c4nnc(C(F)(F)F)s4)ncc23)C1 (stereo not drawn) [Example 267, N-(1-(6-(N-(1-cyanocyclopropyl)sulfamoyl)-3-(5-(trifluoromethyl)-1,3,4-thiadiazol-2-yl)imidazo[1,5-a]pyridin-8-yl)piperidin-3-yl)isobutyramide] | –
19 | – | 45.7 | – | N#CC1(NS(=O)(=O)c2cc(N3CCN(C(=O)C4CNCCN4)CC3)c3cnc(-c4nnc(C(F)(F)F)s4)n3c2)CC1 (stereo not drawn) [Example 280, N-(1-cyanocyclopropyl)-8-(4-(piperazine-2-carbonyl)piperazin-1-yl)-3-(5-(trifluoromethyl)-1,3,4-thiadiazol-2-yl)imidazo[1,5-a]pyridine-6-sulfonamide] | –
20 | – | 6.03 | – | C[C@@H]1CN(c2cc(S(=O)(=O)NC3(C#N)CC3)cn3c(-c4nnc(C(F)F)s4)ncc23)CCN1C(=O)C1CNC1 [Example 288, (R)-8-(4-(azetidine-3-carbonyl)-3-methylpiperazin-1-yl)-N-(1-cyanocyclopropyl)-3-(5-(difluoromethyl)-1,3,4-thiadiazol-2-yl)imidazo[1,5-a]pyridine-6-sulfonamide] | –
21 | – | – | 2320 | N#CC1(NS(=O)(=O)c2cc(C#Cc3cncs3)c3cnc(-c4nnc(C(F)F)s4)n3c2)CC1 [Example 374, N-(1-cyanocyclopropyl)-3-(5-(difluoromethyl)-1,3,4-thiadiazol-2-yl)-8-(thiazol-5-ylethynyl)imidazo[1,5-a]pyridine-6-sulfonamide] | –
22 | – | – | 855 | N#CC1(NS(=O)(=O)c2cc(C#CC3CCOC3)c3cnc(-c4nnc(C(F)F)s4)n3c2)CC1 (stereo not drawn) [Example 375, N-(1-cyanocyclopropyl)-3-(5-(difluoromethyl)-1,3,4-thiadiazol-2-yl)-8-((tetrahydrofuran-3-yl)ethynyl)imidazo[1,5-a]pyridine-6-sulfonamide] | –
23 | – | – | 30000 | N#CC1(NS(=O)(=O)c2cc(C#Cc3c[nH]cn3)c3cnc(-c4nnc(C(F)F)s4)n3c2)CC1 [Example 376, 8-((1H-imidazol-4-yl)ethynyl)-N-(1-cyanocyclopropyl)-3-(5-(difluoromethyl)-1,3,4-thiadiazol-2-yl)imidazo[1,5-a]pyridine-6-sulfonamide] | –
24 | – | – | 530 | C[C@H]1CN(c2cc(S(=O)(=O)NC3(C)COC3)cn3c(-c4nnc(C(F)F)s4)nc(Cl)c23)C[C@H](CO)O1 [Example 397, 1-chloro-3-(5-(difluoromethyl)-1,3,4-thiadiazol-2-yl)-8-((2R,6S)-2-(hydroxymethyl)-6-methylmorpholino)-N-(3-methyloxetan-3-yl)imidazo[1,5-a]pyridine-6-sulfonamide] | –

Row | SMILES | IC50 [2, 3] [nM] | IC50 ([2]; PARG, TFMU-ADPr substrate) [nM] | IC50 [1, 4] [nM] | also measured
25 | N#CC1(NS(=O)(=O)c2ccc3c(C4=CCC5(CNC5)C4)nc(-c4nnc(C(F)F)s4)n3c2)CC1 [Example 22, N-(1-cyanocyclopropyl)-3-(5-(difluoromethyl)-1,3,4-thiadiazol-2-yl)-1-(2-azaspiro[3.4]oct-6-en-6-yl)imidazo[1,5-a]pyridine-6-sulfonamide] | < 100 | 5.17 | – | IC50 ([1]; Homo sapiens, HCC1806, 168 h, read-out: IC50 (nM) in cell viability assay, HCC1806, 7 days, CellTiter-Glo): > 30000 nM; IC50 ([1]; read-out: IC50 (nM) in cell viability assay, HCC1806, 7 days, CellTiter-Glo): 30000 nM
